In patent US11026889B2, “Polymeric drug delivery systems for treatment of disease” (Board of Regents, The University of Texas System, priority 2015, dated 2021):

What was measured:
Miapaca-2 cells [1] = assay: Clonogenicity assay, Miapaca-2; assay type: cell-based, human; conditions: 3 μM, 10 days, vs no treatment
Procedure: (§1) Assays of cell proliferation and clonogenicity. Cells were seeded at 2000 cells/well in 96-well plates and treated at 37° C. for 72 h before MTS [3-(4,5-dimethylthiazol-2-yl)-5-(3-carboxymethoxyphenyl)-2-(4-sulfophenyl)-2H- tetrazolium] assay. The proportion of viable cells was normalized to that of untreated cells and expressed as mean±standard error of the mean (n=6). […] Cells were seeded at 1000 cells per 10-cm plate in growth medium overnight and treated at 37° C. for 10 days. At the end of this 10-day period, colonies were fixed with formalin and stained with crystal violet. Colonies with more than 20 cells were counted.

L3.6pl cells = assay: Cell proliferation MTS assay, L3.6pl; assay type: cell-based; conditions: Homo sapiens, 72 h
Procedure: as §1

Miapaca-2 cells [2] = assay: Cell proliferation MTS assay, Miapaca-2; assay type: cell-based; conditions: Homo sapiens, MIA PaCa-2, 72 h
Procedure: as §1

Panc-1 cells = assay: Cell proliferation MTS assay, Panc-1; assay type: cell-based; conditions: Homo sapiens, 72 h
Procedure: as §1

HPSCs = assay: Cell proliferation MTS assay, HPSCs; assay type: cell-based; conditions: 72 h, read-out: IC50, HPSC proliferation
Procedure: as §1

[3] = tested on: spontaneous PDAC of KPC-luc mice; assay: Survival study in KPC-luc mice; assay type: in vivo; conditions: KPC-luc mice enrolled at 95 to 100 days of age; CTL 139 days
Procedure: FIG. 22: Antitumor efficacy of M-CPA/PTX in a transgenic mice model with spontaneous PDAC in the pancreas of KPC-Luc mice. Mice with positive bioluminescence signals were enrolled at 95 to 100 days of age. M-CPA/PTX was given at 5 mg/kg/drug per injection. The treatment schedule was: 3 intravenous injections per week for the first 2 weeks, followed by 2 intraperitoneal injections per week until death or 90 days from the initiation of treatment. Untreated mice were kept as control (CTL). Gemcitabine and abraxane were used as the standard therapies. Gemcitabine was intraperitoneally injected at 100 mg/kg every other day until death. Abraxane was given at 5 mg/kg/injection following the same schedule as M-CPA/PTX.
The genetically engineered mouse model of PDAC (the KPC-luc mouse model) was also used to test for the antitumor efficacy of drug-loaded micelles on tumors in a survival study. […] The mice were assigned into four different groups: (1) mice with untreated […] (control group), (2) mice intravenously injected gemcitabine at 100 mg/kg every other day until death, (3) mice given Abraxane at 5 mg/kg/injection, and (4) M-CPA/PTX given at 5 mg/kg/drug per injection. […]

Structure (SMILES) | reduction of the number of colonies (Miapaca-2 cells [1]) [%] | IC50 (L3.6pl cells) [µM] | IC50 (Miapaca-2 cells [2]) [µM] | IC50 (Panc-1 cells) [µM] | IC50 (HPSCs) [µM] | median survival [3] [days]
CC1=C2C[C@H]3[C@@H](CC=C4C[C@@H](O)CC[C@@]43C)[C@@H]2CC[C@]12O[C@@H]1C[C@H](C)CN[C@H]1[C@H]2C [CPA, cyclopamine] | 18.2±1.3 | 16 ± 1.5 | 10.2 ± 0.1 | ~163 | 13.3 ± 1.2 | 
CC(=O)O[C@H]1C(=O)[C@@]2(C)[C@H]([C@H](OC(=O)c3ccccc3)[C@]3(O)C[C@H](OC(=O)[C@H](O)[C@@H](NC(=O)c4ccccc4)c4ccccc4)C(C)=C1C3(C)C)[C@]1(OC(C)=O)CO[C@@H]1C[C@@H]2O [PTX, paclitaxel] |  | 0.0014 ± 0.0001 | 0.0012 ± 0.0001 | 0.0024 ± 0.0004 |  | 
Nc1ccn([C@@H]2O[C@H](CO)[C@@H](O)C2(F)F)c(=O)n1 [gemcitabine] |  |  |  |  |  | 167
